Assay results reported in patent publication US4806361A, “Medicaments in sustained release unit dose form” (Sterling Drug Inc., priority 1984, dated 1989).

Key:
[1] = Urinary recovery of active ingredient over 0-24 hours (HPLC); design: species or system human; conditions: in vivo
Experimental: After measuring volume and pH, aliquots were stored below -15° C. pending assay for the active ingredient by a validated HPLC procedure.
The resulting linear regression was used to determine urine concentrations of the active ingredient in each sample. Recovered amounts of the active ingredient were then calculated from the urine volume for the collection period of each sample.

[2] = pH 6.0-7.0; cited from earlier work

SMILES | Excretion [1] | Metabolism [1] | Solubility [2]
Cc1[nH]c(=O)c(C#N)cc1-c1ccncc1 [1,2-dihydro-3-cyano-6-methyl-5-(4-pyridinyl)-2(1H)-pyridinone] | excreted in the urine | only slightly metabolized | 
OCCN(CCO)c1nc(N2CCCCC2)c2nc(N(CCO)CCO)nc(N3CCCCC3)c2n1 [dipyridamole] |  |  | insoluble
